For the test, the system named is BDF1 mice, colon carcinoma 38 sc, T/C %. As to the kind of experiment: NCI In Vivo Anticancer Drug Screen. Data for tumor model Colon Carcinoma 38 (subcutaneous) in B6D2F1 (BDF1) mice. As to conditions: endpoint: median tumor weight (est.), higher = larger tumour. A digest of the protocol:
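Ratio of survival or tumor size, compound-treated animals relative to vehicle controls, in tumor-bearing mice.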

Setting [1] is: dose: 50.0 mg/kg/injection, schedule: Q07DX002 (ip), vehicle: Klucel (hydroxypropylcellulose) (HPC).
Setting [2] is: dose: 100.0 mg/kg/injection, schedule: Q07DX002 (ip), vehicle: Klucel (hydroxypropylcellulose) (HPC).
Setting [3] is: dose: 200.0 mg/kg/injection, schedule: Q07DX002 (ip), vehicle: Klucel (hydroxypropylcellulose) (HPC).
Where [4] appears, read: dose: 400.0 mg/kg/injection, schedule: Q07DX002 (ip), vehicle: Klucel (hydroxypropylcellulose) (HPC).
Setting [5] is: dose: 800.0 mg/kg/injection, schedule: Q07DX002 (ip), vehicle: Klucel (hydroxypropylcellulose) (HPC).
The mark [6] stands for this setting: dose: 100.0 mg/kg/injection, schedule: Q07DX002 (ip), vehicle: saline with Tween-80.
The mark [7] stands for this setting: dose: 200.0 mg/kg/injection, schedule: Q07DX002 (ip), vehicle: saline with Tween-80.
Where [8] appears, read: dose: 25.0 mg/kg/injection, schedule: Q07DX002 (ip), vehicle: Klucel (hydroxypropylcellulose) (HPC).
Setting [9] is: dose: 12.5 mg/kg/injection, schedule: Q07DX002 (ip), vehicle: saline.
[10] abbreviates: dose: 25.0 mg/kg/injection, schedule: Q07DX002 (ip), vehicle: saline.
Setting [11] is: dose: 50.0 mg/kg/injection, schedule: Q07DX002 (ip), vehicle: saline.

Where “and” joins values, the source holds several entries; their conditions need not be identical. Identical values can stand only once. Results filed as inconclusive are left out.

As for `C[C@]12CCC(=O)C=C1CC[C@@H]1[C@@H]2C(=O)C[C@@]2(C)[C@H]1CC[C@]2(O)C(=O)CO`, the T/C was 74 % of control (dose: 40.0 mg/kg/injection, schedule: Q07DX003 (ip), vehicle: Klucel (hydroxypropylcellulose) (HPC)); 117 % of control under setting [1]; 88 % of control (dose: 80.0 mg/kg/injection, schedule: Q07DX003 (ip), vehicle: Klucel (hydroxypropylcellulose) (HPC)); 69 % of control under setting [2]; 66 % of control (dose: 160.0 mg/kg/injection, schedule: Q07DX003 (ip), vehicle: Klucel (hydroxypropylcellulose) (HPC)); 45 % of control under setting [3]. The T/C runs as follows: (dose: 320.0 mg/kg/injection, schedule: Q07DX003 (ip), vehicle: Klucel (hydroxypropylcellulose) (HPC)) 74 % of control; under setting [4], 53 % of control; (dose: 640.0 mg/kg/injection, schedule: Q07DX003 (ip), vehicle: Klucel (hydroxypropylcellulose) (HPC)) 47 % of control; under setting [5], 66 % of control; (dose: 1200.0 mg/kg/injection, schedule: Q07DX002 (ip), vehicle: Klucel (hydroxypropylcellulose) (HPC)) 67 % of control.

For `NC(=O)c1cn(C2OC(CO)C(O)C2O)c2ncnc(N)c12` (stereo not given), the T/C was 55 % of control (dose: 0.5 mg/kg/injection, schedule: Q07DX002 (ip), vehicle: suspension in saline); 84 % of control (dose: 1.0 mg/kg/injection, schedule: Q07DX002 (ip), vehicle: suspension in saline); 73 % of control (dose: 2.0 mg/kg/injection, schedule: Q07DX002 (ip), vehicle: saline with Tween-80); 56 % of control and 62 % of control (dose: 2.0 mg/kg/injection, schedule: Q07DX002 (ip), vehicle: suspension in saline); 79 % of control (dose: 4.0 mg/kg/injection, schedule: Q07DX002 (ip), vehicle: saline with Tween-80); 48 % of control and 73 % of control (dose: 4.0 mg/kg/injection, schedule: Q07DX002 (ip), vehicle: suspension in saline). In addition, the T/C (dose: 8.0 mg/kg/injection, schedule: Q07DX002 (ip), vehicle: suspension in saline) is 38 % of control.

Regarding `O=C1c2ccccc2C(=O)c2c1cn1c2Cc2ccccc2C1`, the T/C was 36 % of control (dose: 5.0 mg/kg/injection, schedule: Q01DX005 (iv), vehicle: other); 36 % of control (dose: 10.0 mg/kg/injection, schedule: Q01DX005 (iv), vehicle: other); 219 % of control (dose: 18.0 mg/kg/injection, schedule: Q07DX002 (ip), vehicle: Klucel (hydroxypropylcellulose) (HPC)); 63 % of control (dose: 18.75 mg/kg/injection, schedule: Q07DX002 (ip), vehicle: Klucel (hydroxypropylcellulose) (HPC)); 36 % of control (dose: 20.0 mg/kg/injection, schedule: Q01DX005 (iv), vehicle: other); 89 % of control (dose: 37.0 mg/kg/injection, schedule: Q07DX002 (ip), vehicle: Klucel (hydroxypropylcellulose) (HPC)). Besides, the T/C runs as follows: (dose: 37.5 mg/kg/injection, schedule: Q07DX002 (ip), vehicle: Klucel (hydroxypropylcellulose) (HPC)) 63 % of control; (dose: 40.0 mg/kg/injection, schedule: Q01DX005 (iv), vehicle: other) 23 % of control; (dose: 75.0 mg/kg/injection, schedule: Q07DX002 (ip), vehicle: Klucel (hydroxypropylcellulose) (HPC)) 38 % of control and 41 % of control and 59 % of control; (dose: 75.0 mg/kg/injection, schedule: Q07DX002 (iv), vehicle: other) 95 % of control; (dose: 100.0 mg/kg/injection, schedule: Q07DX002 (ip), vehicle: other) 74 % of control; under setting [6], 63 % of control. The T/C was 120 % of control (dose: 100.0 mg/kg/injection, schedule: Q07DX002 (iv), vehicle: other); 41 % of control (dose: 150.0 mg/kg/injection, schedule: Q07DX002 (ip), vehicle: other); 41 % of control (dose: 200.0 mg/kg/injection, schedule: Q07DX002 (ip), vehicle: other); 61 % of control under setting [7]; 8 % of control and 13 % of control (dose: 300.0 mg/kg/injection, schedule: Q07DX002 (ip), vehicle: Klucel (hydroxypropylcellulose) (HPC)).

Consider `CCOC(=O)CNC(=O)Sc1ccc(C(C)(C)C)cc1`, for which the T/C under setting [8] was 117 % of control and 97 % of control; the T/C under setting [2] is 111 % of control and 95 % of control; the T/C under setting [3] was 78 % of control and 81 % of control; the T/C under setting [4] is 78 % of control and 102 % of control; the T/C under setting [5] is 54 % of control.

Turning to `C1OC1CN1CCN(CC2CO2)CC1` (stereo not given), the T/C is 98 % of control (dose: 3.12 mg/kg/injection, schedule: Q07DX002 (ip), vehicle: saline); 1 % of control (dose: 3.12 mg/kg/injection, schedule: Q07DX003 (ip), vehicle: saline); 23 % of control (dose: 6.25 mg/kg/injection, schedule: Q07DX003 (ip), vehicle: saline); 77 % of control under setting [9]; 9 % of control (dose: 12.5 mg/kg/injection, schedule: Q07DX003 (ip), vehicle: saline); 100 % of control under setting [10]. Further, the T/C is, setting by setting: (dose: 25.0 mg/kg/injection, schedule: Q07DX003 (ip), vehicle: saline) 20 % of control; under setting [11], 77 % of control; (dose: 50.0 mg/kg/injection, schedule: Q07DX003 (ip), vehicle: saline) 4 % of control.

With `O=C(N[C@H](CO)[C@H](O)c1ccc([N+](=O)[O-])cc1)C(Cl)Cl`, the T/C reads like this: under setting [6], 60 % of control; (dose: 112.0 mg/kg/injection, schedule: Q07DX002 (ip), vehicle: saline with Tween-80) 72 % of control; under setting [7], 91 % of control; (dose: 225.0 mg/kg/injection, schedule: Q07DX002 (ip), vehicle: saline + Tween-80 + alcohol) 44 % of control; (dose: 225.0 mg/kg/injection, schedule: Q07DX002 (ip), vehicle: saline with Tween-80) 95 % of control; (dose: 400.0 mg/kg/injection, schedule: Q07DX002 (ip), vehicle: saline with Tween-80) 112 % of control. Besides, the T/C runs as follows: (dose: 450.0 mg/kg/injection, schedule: Q07DX002 (ip), vehicle: saline + Tween-80 + alcohol) 85 % of control; (dose: 450.0 mg/kg/injection, schedule: Q07DX002 (ip), vehicle: saline with Tween-80) 87 % of control and 94 % of control; (dose: 800.0 mg/kg/injection, schedule: Q07DX002 (ip), vehicle: saline with Tween-80) 68 % of control; (dose: 900.0 mg/kg/injection, schedule: Q07DX002 (ip), vehicle: saline + Tween-80 + alcohol) 41 % of control; (dose: 900.0 mg/kg/injection, schedule: Q07DX002 (ip), vehicle: saline with Tween-80) 118 % of control.

`Cc1cc(N(CCOS(C)(=O)=O)CCOS(C)(=O)=O)ccc1C=Nc1ccc(-c2nc(Cc3ccccc3)sc2C)cc1`: the T/C is 112 % of control and 91 % of control (dose: 12.5 mg/kg/injection, schedule: Q07DX002 (ip), vehicle: Klucel (hydroxypropylcellulose) (HPC)); 100 % of control and 102 % of control under setting [8]; 112 % of control and 98 % of control under setting [1]; 63 % of control and 76 % of control under setting [2]; 18 % of control and 30 % of control under setting [3].

Turning to `C=C1C(=O)OC2CC(C)C3C4OC4C(O)C3(C)C(O)C12` (stereo not given), the T/C (dose: 6.25 mg/kg/injection, schedule: Q07DX002 (ip), vehicle: saline) was 115 % of control; the T/C under setting [9] is 118 % of control; the T/C under setting [10] is 116 % of control; the T/C under setting [11] is 80 % of control; the T/C (dose: 100.0 mg/kg/injection, schedule: Q07DX002 (ip), vehicle: saline) is 155 % of control.

Take `O=c1nc(Oc2ccccc2)nc2ncccn12`: the T/C is 82 % of control (dose: 12.5 mg/kg/injection, schedule: Q07DX002 (ip), vehicle: saline with Tween-80); 94 % of control (dose: 25.0 mg/kg/injection, schedule: Q07DX002 (ip), vehicle: saline with Tween-80); 74 % of control under setting [6].

Consider `C=C(OC1C(C)=C2C(C1OC(=O)CCCCCCC)C(C)(OC(C)=O)CC(OC(=O)CCC)C1(O)C2OC(=O)C1(C)O)/C(C)=C/C` (stereo not given), for which the T/C reads like this: (dose: 0.21 mg/kg/injection, schedule: Q07DX002 (ip), vehicle: Klucel (hydroxypropylcellulose) (HPC)) 35 % of control; (dose: 0.84 mg/kg/injection, schedule: Q07DX002 (ip), vehicle: Klucel (hydroxypropylcellulose) (HPC)) 82 % of control and 86 % of control and 92 % of control.

Source of the values: PubChem BioAssay AID212 (DTP/NCI, 2004).
